Source: patent US5216001A, “Indole derivatives” (H. Lunbeck A/S, priority 1990, dated 1993)

Biological target: T1, serotonin S2 (5-HT2) receptors (Rattus norvegicus, UniProt P14842)
T1 construct: cortical tissue is dissected and weighed; from tissue; host or cells: cerebral cortex membranes of male Wistar (Mol:Wist) rats
Test: inhibition of 3H-ketanserin binding to serotonin S2 (5-HT2) receptors in rat cortex in vitro
Settings: 3H-ketanserin 0.5 nM, rat cortex membranes, read-out: Binding IC50, 3H Ket.
Description: Method in Hyttel, Pharmacology & Toxicology, 61, 126-129. 1987.
Male Wistar (Mol:Wist) rats (125-250 g) are sacrifices and cortical tissue is dissected and weighed. The tissue is homogenized (Ultra Turrax, 10 sec.) in 10 ml of ice-cold 50 mM tris buffer pH 7.7 (at 25° C.). The centrifuge glassware used in this step has been rinsed by sonication for 10 min. in ethanol. The homogenate is centrifuged twice at 20,000 g for 10 min. at 4° C. with rehomogenization of the pellet in 10 ml ice-cold buffer. The final pellet is homogenized in 500 vol (w/v) ice-cold buffer.
Incubation tubes kept on ice in triplicate receive 100 μl of drug solution in water (or water for total binding) and 2000 μl of tissue suspension (final tissue content corresponds to 4 mg original tissue). […] After incubation for 30 min. the samples are filtered under vacuum (0-50 mBar) through Whatman GF/F filters (25 mm). The tubes are rinsed with 5 ml ice-cold buffer which are then poured on the filters. Thereafter, the filters are washed with 2×5 ml of buffer. The filters are placed in counting vials and 4 ml of appropriate scintillation fluid (e.g., Picofluor™15) are added. After shaking for 1 h and storage 2 hrs in the dark the content of radioactivity is determined by liquid scintillation counting. Specific binding is obtained by subtracting the nonspecific binding in the presence of 1 μM mianserin. For determination of the inhibition of binding five concentrations of drugs covering 3 decades are used.
The IC50 value is determined as the concentration at which the binding is 50% of the total binding in control samples minus the nonspecific binding in the presence of 1 μM mianserin.

T1 sequence (P14842 whole entry): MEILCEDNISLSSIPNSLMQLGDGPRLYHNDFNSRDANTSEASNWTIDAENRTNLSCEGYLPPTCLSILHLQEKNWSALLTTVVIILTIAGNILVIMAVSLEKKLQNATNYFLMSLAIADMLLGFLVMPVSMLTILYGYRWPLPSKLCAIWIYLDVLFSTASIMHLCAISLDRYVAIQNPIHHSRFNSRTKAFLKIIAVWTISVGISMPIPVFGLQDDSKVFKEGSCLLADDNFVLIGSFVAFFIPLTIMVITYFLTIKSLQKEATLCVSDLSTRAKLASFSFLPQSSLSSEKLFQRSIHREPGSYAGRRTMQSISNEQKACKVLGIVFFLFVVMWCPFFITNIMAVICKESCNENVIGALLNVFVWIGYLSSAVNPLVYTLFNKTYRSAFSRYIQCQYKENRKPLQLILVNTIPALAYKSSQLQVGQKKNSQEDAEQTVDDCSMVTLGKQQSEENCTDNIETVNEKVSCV

Cc1ccc2c(C3=CCN(CCN4CCN(C(C)C)C4=O)CC3)cn(-c3ccc(F)cc3)c2c1 [Compound 2b, 1-(4-fluorophenyl)-6-methyl-3-[1-[2-[3-(2-propyl)-2-imidazolidinon-1-yl]ethyl]-1,2,3,6-tetrahydropyridin-4-yl]-1H-indole] and CC(C)N1CCN(CCN2CCC(c3cn(-c4ccc(F)cc4)c4cc(Br)ccc34)CC2)C1=O [Compound 5b, 6-bromo-1-(4-fluorophenyl)-3-[1-[2-[3-(2-propyl)-2-imidazolidinon-1-yl]ethyl]-4-piperidyl]-1H-indole] are within 1.5-fold of each other in IC50: 1.9 nM for the first, 2 nM for the second.

O=C1NCCN1CCN1CCC(c2cn(-c3ccc(F)cc3)c3cc(C(F)(F)F)ccc23)CC1 [Compound 4d, 1-(4-fluorophenyl)-3-[1-[2-(2-imidazolidinon-1-yl)ethyl]-4-piperidyl]-6-trifluoromethyl-1H-indole] and O=C1NCCN1CCN1CCC(c2cn(-c3ccc(F)cc3)c3cc(Br)ccc23)CC1 [Compound 4h, 6-bromo-1-(4-fluorophenyl)-3-[1-[2-(2-imidazolidinon-1-yl)ethyl-]-4-piperidyl]-1H-indole] are within 1.5-fold of each other in IC50: 1.7 nM for the first, 1.8 nM for the second.

OCCN1CCC(c2cn(-c3ccc(F)cc3)c3cc(Cl)ccc23)CC1 [Compound 4f, 6-chloro-1-(4-fluorophenyl)-3-[1-(2-hydroxyethyl)-4-piperidyl]-1H-indole] and CC(=O)NCCN1CCC(c2cn(-c3ccc(F)cc3)c3cc(Cl)ccc23)CC1 [Compound 9j] are the same in IC50: 11 nM for the first, 11 nM for the second.

First: COc1ccc2c(C3CCN(CCN4CCOC4=O)CC3)cn(-c3ccc(F)cc3)c2c1 [Compound 4j, 1-(4-fluorophenyl)-6-methoxy-3-[1-[2-(2-oxazolidinon-1-yl]ethyl]-4-piperidyl]-1H-indole]
Second: CC(C)c1ccc2c(C3CCN(CCN4CCNC4=O)CC3)cn(-c3ccc(F)cc3)c2c1 [Compound 5d, 1-(4-fluorophenyl)-6-(2-propyl)-3-[1-[2-(2-imidazolidinon-1-yl)ethyl]-4-piperidyl]-1H-indole]
The IC50 of the first is 2.2-fold higher: 40 nM for the first, 18 nM for the second. The second is the more potent here.

First: CC(C)N1CCN(CCN2CCC(c3cn(-c4ccc(F)cc4)c4cc(S(C)(=O)=O)ccc34)CC2)C1=O [Compound 4k, 1-(4-fluorophenyl)-6-methylsulfonyl-3-[1-[2-[3-(2-propyl)-2-imidazolidinon-1-yl]ethyl]-4-piperidyl]-1H-indole]
Second: CSc1ccc2c(C3CCN(CCN4CCN(C(C)C)C4=O)CC3)cn(-c3ccc(F)cc3)c2c1 [Compound 19a, 1-(4-fluorophenyl)-6-methylthio-3-[1-[2-[3-(2-propyl)-2-imidazolidinon-1-yl]ethyl]-4-piperidyl]-1H-indole]
The IC50 of the first is 2.8-fold higher: 9 nM for the first, 3.2 nM for the second. The second is the more potent here.

CC(C)N1CCN(CCN2CCC(c3cn(-c4ccc(F)cc4)c4cc(Cl)c(Cl)cc34)CC2)C1=O [Compound 5e, 5,6-dichloro-1-(4-fluorophenyl)-3-[1-[2-[3-(2-propyl)-2-imidazolidinon-1-yl]ethyl]-4-piperidyl]-1H-indole] and CC(C)N1CCN(CCN2CCC(c3cn(-c4ccc(F)cc4)c4cc5c(cc34)CCC5)CC2)C1=O [Compound 5g, 1-(4-fluorophenyl)-3-[1-[2-[3-(2-propyl)-2-imidazolidinon-1-yl]ethyl]-4-piperidyl]-1,5,6,7-tetrahydrocyclopent[f]-1H-indole] are within 1.5-fold of each other in IC50: 3.4 nM for the first, 3.2 nM for the second.

Compared with O=C1NCCN1CCN1CCC(c2cn(-c3ccc(F)cc3)c3cc4c(cc23)CCC4)CC1 [Compound 5h, 1-(4-fluorophenyl)-3-[1-[2-(2-imidazolidinon-1-yl)ethyl]-4-piperidyl]-1,5,6,7-tetrahydrocyclopent[f]-1H-indole], Fc1ccc(-n2cc(C3CCN(CCN4CCNC4=S)CC3)c3ccc(Cl)cc32)cc1 [Compound 12a, 6-chloro-1-(4-fluorophenyl)-3-[1-[2-(2-imidazolidinthion-1-yl)ethyl]-4-piperidyl]-1H-indole] is 5.2-fold higher in IC50: 1.2 nM for the first, 6.2 nM for the second.

First: CNC(=S)NCCN1CCC(c2cn(-c3ccc(F)cc3)c3cc(Cl)ccc23)CC1 [Compound 9c, 6-chloro-1-(4-fluorophenyl)-3-[1-[2-(3-methyl-1-thioureido)-1-ethyl]-4-piperidyl]-1H-indole]
Second: CN(C)C(=S)NCCN1CCC(c2cn(-c3ccc(F)cc3)c3cc(Cl)ccc23)CC1 [Compound 9f]
The IC50 of the first is 4.8-fold higher: 12 nM for the first, 2.5 nM for the second. The second is the more potent here.

Compared with CCN(CCN1CCC(c2cn(-c3ccc(F)cc3)c3cc(Cl)ccc23)CC1)C(=O)N(C)C [Compound 9e, 6-chloro-3-[1-[2-(3,3-dimethyl-1-ethyl-1-ureido)-1-ethyl]-4-piperidyl]-1-(4-fluorophenyl)-1H-indole], CNC(=O)N(C)CCN1CCC(c2cn(-c3ccc(F)cc3)c3cc(Cl)ccc23)CC1 [Compound 9h, 6-chloro-1-(4-fluorophenyl)-3-[1-[2-(1,3-dimethyl-1-ureido)-1-ethyl]-4-piperidyl]-1H-indole] is 4-fold lower in IC50: 6.4 nM for the first, 1.6 nM for the second. The second is the more potent here.

Compared with CC(C)N(C)C(=O)NCCN1CCC(c2cn(-c3ccc(F)cc3)c3cc(Cl)ccc23)CC1 [Compound 9g, 6-chloro-1-(4-fluorophenyl)-3-[1-[2-[3-methyl-3-(2-propyl)-1-ureido]-1-ethyl]-4-piperidyl]-1H-indole], CN(C)C(=O)NCCN1CCC(c2cn(-c3ccc(F)cc3)c3cc(Cl)ccc23)CC1 [Compound 9l, 6-chloro-3-[1-[2-(3,3-dimethyl-1-ureido)-1-ethyl]-4-piperidyl]-1-(4-fluorophenyl)-1H-indole] is 4.8-fold lower in IC50: 6.2 nM for the first, 1.3 nM for the second. The second is the more potent here.

Going from CC(C)NC(=O)N(C)CCN1CCC(c2cn(-c3ccc(F)cc3)c3cc(Cl)ccc23)CC1 [Compound 9i, 6-chloro-1-(4-fluorophenyl)-3-[1-[2-(1-methyl-3-(2-propyl)-1-ureido)-1-ethyl]-4-piperidyl]-1H-indole] to CCOC(=O)NCCN1CCC(c2cn(-c3ccc(F)cc3)c3cc(Cl)ccc23)CC1 [Compound 9k], the IC50 rises from 2.2 nM to 4 nM (1.8-fold).

Going from CC(C)N1CCN(CCN2CCC(c3cn(-c4ccccc4)c4cc(Cl)ccc34)CC2)C1=O [Compound 15k, 6-chloro-1-phenyl-3-[1-[2-[3-(2-propyl)-2-imidazolidinon-1-yl]ethyl]-4-piperidyl]-1H-indole] to O=C1N(CCO)CCN1CCN1CCC(c2cn(-c3ccc(F)cc3)c3cc(Cl)ccc23)CC1 [Compound 18a, 6-chloro-1(4-fluorophenyl)-3-[1-[2-[3-(2-hydroxyethyl)-2-imidazolidinon-1-yl]e-thyl]-4-piperidyl]-1H-indole], the IC50 falls from 4.5 nM to 2.5 nM (1.8-fold). The second is the more potent here.

Going from CC(C)n1ccn(CCN2CCC(c3cn(-c4ccc(F)cc4)c4cc(Cl)ccc34)CC2)c1=O [Compound 17a, 6-chloro-1-(4-fluorophenyl)-3-[1-[2-[3-(2-propyl)imidazol-2-on-1-yl]ethyl]-4-piperidyl]-1H-indole] to CC(C)N1CCN(CCN2CCC(C3CN(c4ccc(F)cc4)c4cc(Cl)ccc43)CC2)C1=O (stereo not drawn) [Compound 21a, 6-chloro-1-(4-fluorophenyl)-3-[1-[2-[3-(2-propyl)-2-imidazolidinon-1-yl]ethyl]-4-piperidyl]-2,3-dihydro-1H-indole], the IC50 rises from 4.6 nM to 9.6 nM (2.1-fold). The first is the more potent here.

For Cc1c(C2=CCN(CCN3CCNC3=O)CC2)c2ccccc2n1-c1ccc(F)cc1 [Compound 24b, 1-(4-fluoropheyl)-3-[1-[2-(2-imidazolidinon-1-yl)ethyl]-1,2,3,6tetrahydropyridin-4-yl]-2-methyl-1H-indole], the IC50 was 1 nM.

Biological target: T2, dopamine D-2 receptors (Rattus norvegicus, UniProt P61169)
T2 construct: striatal tissue is dissected and weighed; from tissue; host or cells: corpus striatum membranes of male Wistar rats
Test: inhibition of 3H-spiperone binding to dopamine D-2 receptors in rat corpus striatum in vitro
Settings: not given
Description: INHIBITION OF ^3 H-SPIPERONE BINDING TO DOPAMINE D-2 RECEPTORS IN RAT CORPUS STRIATUM IN VITRO
By this method the inhibition by drugs of the binding of ^3 H-spiperone (0.5 nM) to dopamine D-2 receptors in membranes from rat corpus striatum is determined in vitro. Method and results in Hyttel and Larsen, J. Neurochem, 44, 1615-1622, 1985).
Male Wistar (Mol:Wistar) rats (125-250 g) are sacrificed and striatal tissue is dissected and weighed. The tissue is homogenized (Ultra Turrax, 10 sec.) in 10 ml of ice-cold 50 mM K-phosphate buffer pH 7.4 (at 25° C.). The homogenate is centrifuged twice at 20,000 g for 10 min. at 4° C. with rehomogenization of the pellet in 10 ml ice-cold buffer. The final pellet is homogenized in 1300 vol (w/v) ice-cold buffer.
Incubation tubes kept on ice in triplicate receive 100 μl of drug solution in water (or water for total binding) and 4000 μl of tissue suspension (final tissue content corresponds to 3.08 mg original tissue). The binding experimental is initiated by addition of 100 μl of ^3 H-spiperone (final concentration 0.5 nM) and by placing the tubes in a 37° C. water bath. After incubation for 10 min. the samples are filtered under vacuum (0-50 mBar) through Whatman GF/F filters (25 mm). The tubes are rinsed with 5 ml ice-cold buffer which are then poured on the filters. Thereafter, the filters are washed with 2×5 ml of buffer. The filters are placed in counting vials and 4 ml of appropriate scintillation fluid (e.g. Picofluor ™15) are added. After shaking for 1 h and storage 2 hrs in the dark the content of radioactivity is determined by liquid scintillation counting. Specific binding is obtained by subtracting the nonspecific binding in the presence of 10 μM of 6,7-ADTN.
For determination of the inhibition of binding five concentrations of drugs covering 3 decades are used.
England, specific activity 15-25 Ci/mmol.

T2 sequence (P61169 whole entry): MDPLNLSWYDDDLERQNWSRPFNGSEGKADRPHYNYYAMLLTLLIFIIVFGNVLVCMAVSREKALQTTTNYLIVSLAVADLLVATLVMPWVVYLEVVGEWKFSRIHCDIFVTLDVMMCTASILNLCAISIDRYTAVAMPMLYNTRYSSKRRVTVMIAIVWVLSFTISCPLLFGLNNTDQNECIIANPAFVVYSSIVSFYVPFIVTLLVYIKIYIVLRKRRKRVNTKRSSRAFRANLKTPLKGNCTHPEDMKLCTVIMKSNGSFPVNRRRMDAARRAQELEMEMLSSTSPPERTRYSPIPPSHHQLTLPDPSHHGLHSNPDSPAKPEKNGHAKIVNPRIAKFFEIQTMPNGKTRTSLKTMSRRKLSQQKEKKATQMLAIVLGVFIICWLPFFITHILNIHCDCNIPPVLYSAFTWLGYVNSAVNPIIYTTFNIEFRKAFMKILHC

Work on Cc1ccc2c(C3=CCN(CCN4CCN(C(C)C)C4=O)CC3)cn(-c3ccc(F)cc3)c2c1 [Compound 2b, 1-(4-fluorophenyl)-6-methyl-3-[1-[2-[3-(2-propyl)-2-imidazolidinon-1-yl]ethyl]-1,2,3,6-tetrahydropyridin-4-yl]-1H-indole] yielded an IC50 of 67 nM.

Same assay, conditions: 3H-spiperone 0.5 nM, rat corpus striatum membranes, in vitro; read-out: Binding IC50, 3H Spi.

Going from COc1ccc2c(C3CCN(CCN4CCOC4=O)CC3)cn(-c3ccc(F)cc3)c2c1 [Compound 4j, 1-(4-fluorophenyl)-6-methoxy-3-[1-[2-(2-oxazolidinon-1-yl]ethyl]-4-piperidyl]-1H-indole] to CC(C)N1CCN(CCN2CCC(c3cn(-c4ccc(F)cc4)c4cc(S(C)(=O)=O)ccc34)CC2)C1=O [Compound 4k, 1-(4-fluorophenyl)-6-methylsulfonyl-3-[1-[2-[3-(2-propyl)-2-imidazolidinon-1-yl]ethyl]-4-piperidyl]-1H-indole], the IC50 falls from 1100 nM to 600 nM (1.8-fold). The second is the more potent here.
